Reference: US8551456B2, “Combination therapy and methods for treating bacterial biofilms” (priority 2010, dated 2013)
Entries after “also recorded” stand apart in the source; their conditions may differ.

How the values were obtained:
[1] = tested on: P. aeruginosa wild-type PAO1 biofilms; experiment: Combined TMP and antibiotic treatment of biofilms in the dark, CSLM LIVE/DEAD; type: cell-based, Pseudomonas aeruginosa; conditions: for Effect on P. aeruginosa biofilm cells, TMP + Antibiotic, pH 7 / gain in killing by the addition of TMP to the antibiotic / red (dead) staining with antibiotic + TMP versus antibiotic alone (FIGS. 5A and 5B): TMP 225 μM 10 min then antibiotic 100 μg ml^−1 2 h
Method: Biofilms were grown on glass slides as described above. […] Slides were incubated in tobramycin for 2 h at 37° C. All incubations were performed in the dark. Cell viability within biofilms was assessed using the LIVE/DEAD BacLight bacterial viability kit and visualized with an Olympus FV1000 CSLM as described above.
Bacterial viability was determined using the LIVE/DEAD BacLight Bacterial Viability assay. The images show horizontal optical sections from the midpoint of the biofilms flanked by vertical optical sections in biofilms treated with panel A showing tobramycin alone and panel B showing TMP+tobramycin.
Using the same protocol used in Example 3 for tobramycin, additional antibiotics were tested to aid in the elucidation of the mechanism of bacterial biofilm disruption in the absence of photoactivation.
Bacterial viability was determined using the LIVE/DEAD BacLight Bacterial Viability assay. Cells staining red are considered dead while cells staining green are alive. […] In summary, panels C, E, G, I, K and M received the respective antibiotic alone, and panels B, D, F, H, J, L and N were treated with the combination of TMP and antibiotic.

[2] = tested on: P. aeruginosa PAO1 wild-type biofilms; experiment: Viable plate counts of cells from static biofilms after TMP and irradiation; type: cell-based, Pseudomonas aeruginosa; conditions: wild-type PAO1, 225 μM TMP, 10 min of irradiation
Method: (§1) P. aeruginosa PAO1 wild-type and isogenic pqsA mutant strain were obtained from Eb Pesci (East Carolina University School of Medicine). P. aeruginosa strains were grown aerobically with shaking in Minimal Salts medium (40 mM K2HPO4, 20 mM KH2PO4, 7.6 mM [NH4]2SO4, 0.2 mM MgSO4.7H2O, 9.2×10^−3 mMFeCl3.6H2O, 0.2% [wt/vol] glucose; adjusted pH 7.0) at 37° C. (4, 17). For static biofilms, P. aeruginosa strains were grown overnight in Minimal Salts medium at 37° C. with shaking. The following day, bacteria were diluted in fresh media to an OD590nm of 0.15. Five hundred microliters of the standardized culture was added to sterile polystyrene cuvettes and incubated statically for 24 h at 37° C. For examination of static biofilms using confocal laser scanning microscopy (CSLM), sterile microscope slides were submerged in standardized cell suspensions and incubated statically at 37° C. for 24 h.
(§2) Samples were irradiated for various exposure times at an intensity of 192 Joules/cm^2.
(§3) Static biofilms formed in sterile polystyrene cuvettes, as described above, were used to quantify cell survival. […] Cells released from the biofilm following treatment were collected from the supernatant by centrifugation and resuspended in PBS. The remaining attached biofilm was washed once and resuspended in PBS. The number of viable cells in the supernatant and attached biofilms following treatment were determined by plating on LB (1.5% agar) plates that were incubated for 24 h at 37° C.
(§4) Cells were collected from the supernatant of treated biofilms, as well as from the remaining attached biofilm. Cell suspensions were diluted and plated onto LB (1.5% agar) plates and incubated 24 h at 37° C. CFU were used to determine the surviving fraction. […] The recovered supernatants contained the cells sloughed off as the result of TPM exposure and irradiation.

[3] = tested on: P. aeruginosa pqsA mutant biofilms; experiment: as above; type: cell-based, Pseudomonas aeruginosa; conditions: 225 μM TMP, irradiated 10 min
Method: as §1, §2, §3, §4

[4] = tested on: P. aeruginosa PAO1 wild-type biofilms; experiment: CSLM of static biofilms with LIVE/DEAD BacLight viability assay; type: cell-based, Pseudomonas aeruginosa
Method: as §1, §2
Negative control slides were transferred to 50 ml tubes containing only PBS. […] Bacterial viability was assessed in biofilm cultures using the LIVE/DEAD BacLight bacterial viability assay (Molecular Probes Inc., Eugene, Oreg.), containing SYTO9 and propidium iodide dyes. Biofilms were visualized with an Olympus FV1000 CSLM (Olympus America, Center Valley, Pa.) using a 60× oil immersion objective. Biofilm images were acquired in 0.4 μm optical sections for the entire thickness of the biofilm.
Bacterial viability was determined using the LIVE/DEAD BacLight Bacterial Viability assay. The cells in panels C-F show significant staining in red (considered dead) while cells in panels A, B, G and H show predominate staining in green (alive). […] The few remaining attached cells were nonviable.

[5] = tested on: P. aeruginosa pqsA mutant biofilms; type: cell-based, Pseudomonas aeruginosa
Method: as §1, §2
Negative control slides were transferred to 50 ml tubes containing only PBS. […] Bacterial viability was assessed in biofilm cultures using the LIVE/DEAD BacLight bacterial viability assay (Molecular Probes Inc., Eugene, Oreg.), containing SYTO9 and propidium iodide dyes. […]
Bacterial viability was determined using the LIVE/DEAD BacLight Bacterial Viability assay.

[6] = tested on: pUCP18 plasmid DNA; experiment: TMP induced degradation of plasmid DNA, agarose gel electrophoresis; type: biochemical; conditions: 100 or 225 μM TMP
Method: Plasmid DNA with and without TMP was irradiated for designated times. Prior to light exposure, samples of DNA supplemented with TMP were collected and incubated in the dark for comparison. DNA was examined using agarose gel electrophoresis.
The untreated control samples had the three expected forms of plasmid DNA: covalently closed circles, relaxed circular, and linear cut (FIG. 3: lanes 1 and 7). Plasmid DNA exposed to light only appeared similar to the control (FIG. 3: lanes 2 and 8).

[7] = tested on: extracellular DNA in P. aeruginosa wild-type biofilms; experiment: Quantification of extracellular biofilm DNA with DNA stains such as Pico Green; type: cell-based, Pseudomonas aeruginosa; conditions: data not shown, possible competition of TMP with Pico Green
[8] = tested on: human fibroblasts
[9] = tested on: P. aeruginosa PAO1 planktonic cell populations; conditions: TMP 2.5 mg ml^−1; cited from earlier work
[10] = tested on: wild-type PAO1 isolates grown in biofilms; conditions: cited from earlier work
[11] = tested on: S. aureus; conditions: cited from earlier work

NC[C@H]1O[C@H](O[C@H]2[C@H](O)[C@@H](O[C@H]3O[C@H](CO)[C@@H](O)[C@H](N)[C@H]3O)[C@H](N)C[C@@H]2N)[C@H](N)C[C@@H]1O [tobramycin]
cell viability and biofilm clearance, TMP then antibiotic ([1]; TMP 225 μM 10 min then tobramycin 100 μg ml^−1 2 h, dark): predominate amount of cells staining red (dead); also recorded: substantial clearance of the biofilms and greater loss of cell viability throughout the biofilms than with either single treatment; also recorded: significant biofilm clearance and enhanced killing of cells
effect of pH on the combination of tobramycin and TMP ([1]; dark conditions, pH range of 4.0 to 8.0): enhancement of killing
cell viability and biofilm clearance, antibiotic alone ([1]; tobramycin alone 100 μg ml^−1, 2 h, dark, no TMP): cells predominately staining green (alive); also recorded: reduction in cell viability which was limited to cells near the surface of the biofilms; also recorded: did not result in substantial biofilm clearance and led to minimal killing of biofilm associated cells

NC[C@H]1O[C@H](O[C@H]2[C@H](O)[C@@H](O[C@H]3O[C@H](CO)[C@@H](O)[C@H](N)[C@H]3O)[C@H](N)C[C@@H]2N)[C@H](O)[C@@H](O)[C@@H]1O [kanamycin]
Effect on P. aeruginosa biofilm cells, TMP + Antibiotic, pH 7 ([1]; dark): +

CC1(C)S[C@@H]2[C@H](NC(=O)C(C(=O)O)c3ccccc3)C(=O)N2[C@H]1C(=O)O (stereo partly drawn) [carbenicillin]
gain in killing by the addition of TMP to the antibiotic ([1]; dark): no enhanced killing
red (dead) staining with antibiotic + TMP versus antibiotic alone (FIGS. 5A and 5B) ([1]; dark): little or no increase in red staining
Effect on P. aeruginosa biofilm cells, TMP + Antibiotic, pH 7 ([1]; dark): −

O=C(O)c1cn(C2CC2)c2cc(N3CCNCC3)c(F)cc2c1=O [Ciprofloxacin]
gain in killing by the addition of TMP to the antibiotic ([1]; dark): no gain in killing
red (dead) staining with antibiotic + TMP versus antibiotic alone (FIGS. 5A and 5B) ([1]; dark): little or no increase in red staining
Effect on P. aeruginosa biofilm cells, TMP + Antibiotic, pH 7 ([1]; dark): +

C[n+]1ccc(-c2c3nc(c(-c4cc[n+](C)cc4)c4ccc([nH]4)c(-c4cc[n+](C)cc4)c4nc(c(-c5cc[n+](C)cc5)c5ccc2[nH]5)C=C4)C=C3)cc1.Cc1ccc(S(=O)(=O)[O-])cc1.Cc1ccc(S(=O)(=O)[O-])cc1.Cc1ccc(S(=O)(=O)[O-])cc1.Cc1ccc(S(=O)(=O)[O-])cc1 [TMP, 5,10,15,20-tetrakis(1-methyl-pyridino)-21H,23H-porphine, tetra-p-tosylate salt]
decrease in viable cells in the attached biofilm population ([2]; attached cells): 4.1 log10
reduction in the number of viable cells in the recovered supernatants ([2]; supernatant cells): 4.5 log10
decrease in cell viability of attached cells ([3]; attached cells): 3.9 log10
reduction in cell viability of cells collected from supernatants ([3]; supernatant cells): 4.2 log10
biofilm density and cell viability (CSLM, LIVE/DEAD) ([4]; wild-type PAO1, 100 μM TMP, irradiated 10 min): decrease in biofilm density and the majority of cells within the biofilm were non-viable
biofilm disruption and clearance (CSLM, LIVE/DEAD) ([4]; wild-type PAO1, 225 μM TMP, 10 min of irradiation): nearly complete disruption and clearance; also recorded: completely disrupted with few cells remaining attached
biofilm structure and cell viability without photoactivation (dark toxicity) ([4]; wild-type PAO1, 225 μM TMP, dark): expanded in volume without a loss of cell viability; also recorded: no dark toxicity; also recorded: did not lead to clearance of wild-type biofilms
cell viability and biofilm architecture without photoactivation ([5]; 225 μM TMP, dark): did not affect cell viability or disrupt the architecture
cell viability of attached cells (CSLM, LIVE/DEAD) ([5]; 100 or 225 μM TMP, irradiated 10 min): decrease in cell viability of attached cells; also recorded: high levels of killing
degradation of plasmid DNA ([6]; irradiation for 5 or 30 min): complete degradation
migration of plasmid DNA in gel without photoactivation ([6]; nonirradiated): retarded migration of DNA; also recorded: migration was retarded
biofilm DNA after TMP and light ([7]; TMP and light): decrease was observed in biofilm DNA
biofilm DNA after TMP in the absence of light ([7]; TMP, no light): decrease in biofilm DNA
toxicity to human fibroblasts [8]: does not appear to be toxic to human fibroblasts
reduction of planktonic cell populations [9]: > 10^2 cfu ml^−1
reduction of wild-type PAO1 isolates grown in biofilms ([10]; TMP 5.0 mg ml^−1, irradiated for 5 min): 1.2 log10
TMP concentration necessary to achieve the same level of killing in bacteria enmeshed within biofilms ([10]; same level of killing as planktonic (>10^2 cfu ml^−1)): 5.0 mg/mL
S. aureus survival ([11]; TMP alone): reduce S. aureus survival
effect on established S. aureus biofilms ([11]; TMP combined with vancomycin): disrupt established biofilms

CN[C@H](CC(C)C)C(=O)N[C@H]1C(=O)N[C@@H](CC(N)=O)C(=O)N[C@H]2C(=O)N[C@H]3C(=O)N[C@H](C(=O)N[C@H](C(=O)O)c4cc(O)cc(O)c4-c4cc3ccc4O)[C@H](O)c3ccc(c(Cl)c3)Oc3cc2cc(c3O[C@@H]2O[C@H](CO)[C@@H](O)[C@H](O)[C@H]2O[C@H]2C[C@](C)(N)[C@H](O)[C@H](C)O2)Oc2ccc(cc2Cl)[C@H]1O [vancomycin]
gain in killing by the addition of TMP to the antibiotic ([1]; dark): substantially enhanced killing
red (dead) staining with antibiotic + TMP versus antibiotic alone (FIGS. 5A and 5B) ([1]; dark): predominately red staining

gentamicin
gain in killing by the addition of TMP to the antibiotic ([1]; dark): behaved similarly to tobramycin
red (dead) staining with antibiotic + TMP versus antibiotic alone (FIGS. 5A and 5B) ([1]; dark): significant increased red staining
